The values that follow come from patent US20260137815A1, “DIAGNOSTIC AND TREATMENT METHODS FOR ONYCHOMYCOSIS” (ToeFX Inc., priority 2022, published 2026).

Each structure is given as a SMILES string.

For this experiment, the system named is T. rubrum strain F4520. As to the kind of experiment: UV-Visual absorption spectra of MB incubated with T. rubrum. How it is done: Referring to FIG. 5C, shown therein are UV-Visual absorption spectra of MB when incubated with T. rubrum. T. rubrum strain F4520 cubes were retrieved from −80° freezer, thawed at room temperature, and transferred to an Sabourand dextrose agar (SDA) plate, and distributed evenly on the SDA plate. The SDA plate was sealed by parafilm and moved into a 30° C. incubator until vigorous fungal growth was observed. Next, fungal mycelia were prepared, by transferring a 6.25 cm^2 culture from the SDA plate to a sterile blender cup and adding 200 mL sterile water. After 30 seconds of blending, varying amounts of blendate was pipetted into wells of a 96 well plate. […] The MB absorbance spectra was then measured by a photospectrometer.
The more dilute the fungus, the higher the MB absorbance value (i.e., normalized absorbance), indicating higher amounts of free MB in the solution.
A similar protocol was followed as described above for FIG. 5C, except that the concentration of T. rubrum in the solution was kept constant. MB absorbance was measured immediately (curve 502), 4 days (curve 504), and 7 days (curve 506) after mixing. Immediately after mixing, the MB absorbance peak is centered at ˜660 nm, corresponding to the absorption peak of MB alone in solution (see FIG. 5A). Over time, the intensity of the absorbance peak is lowered as MB is adsorbed to fungal cells, consistent with the curves in FIG. 5C.

As to `CN(C)c1ccc2nc3ccc(=[N+](C)C)cc-3sc2c1` [MB, Methylene Blue], the “MB absorbance (normalized) with increasing fungal concentration” value (0.01% v/v solution of MB, varying concentrations of T. rubrum) is on record as “lower MB absorbance is observed”. Besides, the “shift of MB absorbance peak over time” value (0.25% v/v solution of MB with T. rubrum culture, immediately, 4 days, 7 days after mixing) is reported as “observable blue-shifting of the MB absorbance peak over time”.
